According to PMC10671431, “New Derivatives of N-Hydroxybutanamide: Preparation, MMP Inhibition, Cytotoxicity, and Antitumor Activity” (International Journal of Molecular Sciences, 2023):
“Also recorded” adds a separate entry of the source.

What was measured:
BDF1 mice = assay: Acute toxicity in vivo
Protocol: Acute toxicity. Experiments involving animals were conducted at the Unique Scientific Unit “Nursery and Vivarium of the FRC PCP MC RAS” in accordance with the rules established by the Commission on Bioethics of the FRC PCP MC RAS (protocol No. 7/22 dated 20 June 2022) and the European Convention for the Protection of Vertebrate Animals for experimental and scientific purposes. Clinically healthy BDF1 hybrid males weighing 20–22 g were utilized. The mice were housed in a conventional vivarium with a 12 h light regime and provided with free access to water and food. Each experimental group consisted of six animals. Compound 4 was dissolved in DMSO and then diluted with 0.9% NaCl to reduce the DMSO concentration to 10%. The solution was administered intraperitoneally at single doses ranging from 200 mg/kg to 1000 mg/kg. The control group received 10% DMSO in 0.9% NaCl intraperitoneally. The animals were monitored daily for 14 days, with attention given to their overall condition, activity, and appetite. At the end of the experiment, all animals were euthanized by inhalation of ether, followed by a pathoanatomical autopsy.

B16 melanoma = assay: Antitumor activity in vivo, tumor growth; design: species or system mouse; conditions: BDF1 mice, i.p., CP 100 mg/kg days 2, 7, cPt 4 mg/kg days 2–9, 4 300 mg/kg days 2–9
Protocol: Antitumor activity in vivo. The B16 mouse melanoma was used as a tumor model. The B16 melanoma tumor strain was induced in male BDF1 mice by subcutaneous inoculation of 0.2–0.5 mL of a suspension of tumor tissue in medium 199 at intervals of 12–16 days. For the experiments, BDF1 mice were inoculated with 0.3 mL of a suspension of tumor tissue diluted in a 0.9% NaCl solution at a ratio of 1:5 subcutaneously on the right side.
Compound 4 was dissolved in a 0.9% NaCl solution with 1% DMSO. […] Control animals were injected intraperitoneally with 1% DMSO in saline (0.9% NaCl) in the same volumes as the test compounds.
Tumor growth was monitored on days 0, 6, 8, 10, 13, 15, 17, and 20 by measuring the tumor size with a digital caliper. The mean tumor diameter was calculated using the formula:D = 3√a × b × c,(2) where a, b, and c are mutually perpendicular tumor diameters.

HepG2 = assay: Cytotoxicity, MTT test; assay type: cell-based, human; conditions: Homo sapiens, HepG2, 72 h of exposure
Protocol: (§1) Cell culture. A-172 (human glioblastoma cells), HepG2 (human hepatocellular carcinoma cells), M-HeLa (human cervical adenocarcinoma cells, M subclone), Vero (African green monkey kidney epithelial cells), and FetMSC (human embryonic mesenchymal stem cells) were purchased from the Russian Collection of Cell Cultures of Vertebrates (Institute of Cytology RAS, St. Petersburg, Russia). The U-251 MG cell line (human glioblastoma-astrocytoma) was purchased from the European Collection of Authenticated Cell Cultures (Salisbury, UK). All cells were grown at 37 °C in an atmosphere of 5% CO2. A-172 and Vero cells were cultured in DMEM medium (PanEco, Moscow, Russia). HepG2, HeLa, and U-251 MG cells were cultured in EMEM medium (PanEco). FetMSC cells were cultured in F12/DMEM medium (PanEco). All incubation media were supplemented with 10% fetal calf serum (BioWest, Nuaillé, France), 50 U/mL penicillin, and […] streptomycin (PanEco). Additionally, media for HeLa, HepG2, and U-251 MG cells were supplemented with 2 mM glutamine (PanEco) and 1% essential amino acids (PanEco), media for A-172 and Vero cells were supplemented with 4 mM glutamine, and the medium for FetMSC cells was supplemented with 3 mM glutamine. The medium for U-251 MG cells was additionally supplemented with 1 mM sodium pyruvate (PanEco).
(§2) Cytotoxicity studies. The cytotoxicity of the compounds was assessed using the MTT test. Cells were seeded into 96-well plates at varying concentrations of 5 × 10^4 cells/mL (A-172, Vero and HeLa), 7 × 10^4 cells/mL (HepG2 and U-251 MG), and 10 × 10^4 cells/mL (FetMSC). The studied compounds were added to the incubation medium 24 h after seeding at concentrations ranging from 7.8 μM to 500 μM. All compounds were dissolved in DMSO and diluted with the incubation medium to their final concentrations just before use. The incubation medium in wells was aspirated and replaced with medium containing the studied compounds. The final concentration of DMSO in all samples was 0.1%. Control samples were treated with 0.1% DMSO. After 72 h of exposure, 3-(4,5-dimethylthiazol-2-yl)-2,5-diphenyl-2H-tetrazolium bromide (MTT) (Dia-M, Moscow, Russia) was added to the incubation medium at a concentration of 0.5 mg/mL. The resulting MTT-formazan crystals were dissolved in DMSO. The optical density was measured at 570 nm with a background wavelength of 620 nm using a Spark 10M plate reader. IC50 values were determined using a median effect analysis from the dose–effect relationships.

A-172 = assay: Cytotoxicity, MTT test; assay type: cell-based, human; conditions: Homo sapiens, A 172, 72 h of exposure
Protocol: as §1, §2

FetMSC = assay: Cytotoxicity, MTT test; assay type: cell-based, human
Protocol: as §1, §2

HeLa = assay: Cytotoxicity, MTT test; assay type: cell-based, human; conditions: Homo sapiens, HeLa, 72 h of exposure
Protocol: as §1, §2

Compound: O=C(CCC(=O)Nc1ccc(I)cc1)NO [Compound 4, N^1-hydroxy-N^4-(4-iodophenyl)butanediamide]
- toxicity classification (BDF1 mice; intraperitoneally, doses up to 1000 mg/kg, classification of [48]): slightly toxic
- body weight change (BDF1 mice; single i.p. dose 300 mg/kg or lower, 300 mg/kg): stable increase in body weight; also recorded: did not impact weight gain
- body weight change (BDF1 mice; single i.p. dose 400 mg/kg): slower weight gain
- body weight change (BDF1 mice; single i.p. dose 1000 mg/kg, within 7 days, partial recovery on day 14): slight decrease in body weight
- body weight change (BDF1 mice; single i.p. doses 600 mg/kg and 800 mg/kg, entire observation period): No significant changes in body weight
- Tumor Growth Inhibition, % Day 10 (B16 melanoma): 34.5%
- Tumor Growth Inhibition, % Day 13 (B16 melanoma): 61.5%
- Tumor Growth Inhibition, % Day 15 (B16 melanoma): 50.4%
- Tumor Growth Inhibition, % Day 17 (B16 melanoma): 44.6%
- Tumor Growth Inhibition, % Day 20 (B16 melanoma): 42.3%
- IC50 (HepG2): 488 ± 23.9 µM
- IC50 (A-172): 418 ± 17.4 µM
- IC50 (FetMSC; Homo sapiens, 72 h of exposure, MTT): > 500 µM
- toxicity to FetMSC cells (FetMSC; only at the highest concentration): some toxicity
- IC50 (HeLa): 297 ± 15.7 µM
